US10669240B2, “5-substituted indazole-3-carboxamides and preparation and use thereof” (Samumed, LLC, priority 2014, dated 2020)
pEC50, pIC50: −log10 of the molar value.

Key:
DYRK1A = DYRK1A (Homo sapiens (Human), UniProt Q13627); assay: DYRK1A activity Tau assay: pSer396 Tau in SH-SY5Y cells by ELISA / western blot; assay type: cell-based; settings: overnight (16-18 h) exposure
Excerpt: In another example, in vitro assays for DYRK1A biological activity may be used, e.g. regulation of microtubule-associated protein tau (MAPT/Tau) phosphorylation in neuronal cell line such as the human SH-SY5Y neuroblastoma cell line. Assays for DYRK1a-regulated level of phosphorylation can include monitoring levels of basal pSer396 Tau, which can be measured, for example, by serial dilutions of a candidate inhibitor composition using a ten micromolar top concentration and detected by ELISA or Western Blotting. An exemplary assay for DYRK-1a-regulated phosphorylation uses the SH-SY5Y cells cultured in a 96 well plate format for a period of time sufficient to stabilize microtubules and Tau phosphorylation, usually at least 2 days, then treated with a 1/3 serial dilution of compounds overnight and lysed. The cell lysate is resolved by SDS PAGE, then transferred to nitrocellulose and probed with an antibody specific for pSer396 Tau.
In a further example, the activity of a candidate compound can be measured by ELISA by adding the lysate mentioned above onto total Tau-coated plates and detected with a specific pSer396 antibody.

[1] = test system: Wnt activity (Wnt-responsive SP5 promoter luciferase reporter in SW480 cells); assay: Wnt activity reporter assay: SW480 cells with SP5 promoter-driven firefly luciferase; assay type: cell-based; settings: Homo sapiens, 24 h after compound addition, read-out: Wnt inhibition
Excerpt: The above synthesized compounds were screened using the assay procedure for Wnt activity described below.
Reporter cell lines were generated by stably transducing cells of cancer cell lines (e.g., colon cancer) with a lentiviral construct that include a Wnt-responsive promoter driving expression of the firefly luciferase gene.
Lentiviral constructs were made in which the SP5 promoter, a promoter having eight TCF/LEF binding sites derived from the SP5 promoter, was linked upstream of the firefly luciferase gene. The lentiviral constructs included a hygromycin resistance gene as a selectable marker. The SP5 promoter construct was used to transduce SW480 cells, a colon cancer cell line having a mutated APC gene that generates a truncated APC protein, leading to de-regulated accumulation of β-catenin.
Cultured SW480 cells bearing a reporter construct were distributed at approximately 10,000 cells per well into 384 well multiwell plates. Compounds were then added to the wells in half-log dilutions using a three micromolar top concentration. A series of control wells for each cell type received only buffer and compound solvent. Twenty-four hours after the addition of compound, reporter activity for luciferases was assayed, for example, by addition of the BrightGlo luminescence reagent (Promega) and the Victor3 plate reader (Perkin Elmer). Readings were normalized to DMSO only treated cells, and normalized activities were then used for the IC50 calculations.

| SMILES | pEC50 (DYRK1A) | pIC50 [1] |
| --- | --- | --- |
| O=C(N[C@@H]1C[C@@H]1c1ccccc1)c1n[nH]c2ccc(-c3cccnc3)cc12 [Compound 38, N-((1R,2R)-2-Phenylcyclopropyl)-5-(pyridin-3-yl)-1H-indazole-3-carboxamide] | 8.40 | 5.80 |
| O=C(N[C@@H]1C[C@@H]1c1ccccc1)c1n[nH]c2ccc(-c3cncc(CN4CCCCC4)c3)cc12 [Compound 39, N-((1R,2R)-2-Phenylcyclopropyl)-5-(5-(piperidin-1-ylmethyl)pyridin-3-yl)-1H-indazole-3-carboxamide] | 9.00 | 6.31 |
| Cc1cc2[nH]nc(C(=O)Nc3cccnc3)c2cc1-c1cccnc1 [Compound 44, 6-Methyl-N,5-di(pyridin-3-yl)-1H-indazole-3-carboxamide] | 7.64 | 5.21 |
| O=C(Nc1ccccn1)c1n[nH]c2ccc(-c3cncc(CN4CCCCC4)c3)cc12 [Compound 56, 5-(5-(Piperidin-1-ylmethyl)pyridin-3-yl)-N-(pyridin-2-yl)-1H-indazole-3-carboxamide] | 8.52 | 5.96 |
| O=C(Nc1ncc(F)cc1F)c1n[nH]c2ccc(-c3cncc(CN4CCCCC4)c3)cc12 [Compound 58, N-(3,5-Difluoropyridin-2-yl)-5-(5-(piperidin-1-ylmethyl)pyridin-3-yl)-1H-indazole-3-carboxamide] | 8.52 | 5.40 |
| CN(C(=O)c1n[nH]c2ccc(-c3cncc(CN4CCCCC4)c3)cc12)c1cccnc1 [Compound 76, N-Methyl-5-(5-(piperidin-1-ylmethyl)pyridin-3-yl)-N-(pyridin-3-yl)-1H-indazole-3-carboxamide] | 6.00 | 5.19 |
| O=C(Nc1cccc2cccnc12)c1n[nH]c2ccc(-c3cncc(CN4CCCCC4)c3)cc12 [Compound 81, 5-(5-(Piperidin-1-ylmethyl)pyridin-3-yl)-N-(quinolin-8-yl)-1H-indazole-3-carboxamide] | 6.51 | 5.12 |
| NC(=O)c1n[nH]c2ccc(-c3cncc(CN4CCCCC4)c3)cc12 [Compound 89, 5-(5-(Piperidin-1-ylmethyl)pyridin-3-yl)-1H-indazole-3-carboxamide] | 8.22 | 5.71 |
| CN1CCC(NC(=O)c2n[nH]c3ccc(-c4cncc(C(F)(F)F)c4)cc23)CC1 [Compound 95, N-(1-Methylpiperidin-4-yl)-5-(5-(trifluoromethyl)pyridin-3-yl)-1H-indazole-3-carboxamide] | 6.58 | 5.97 |
| O=C(Nc1cccnc1)c1n[nH]c2ccc(-c3cccc(F)c3F)cc12 [Compound 96, 5-(2,3-Difluorophenyl)-N-(pyridin-3-yl)-1H-indazole-3-carboxamide] | 6.87 | 5.33 |
| O=C(NC1CCNCC1)c1n[nH]c2ccc(-c3cccc(F)c3F)cc12 [Compound 254, 5-(2,3-Difluorophenyl)-N-(piperidin-4-yl)-1H-indazole-3-carboxamide] | 7.18 | 5.10 |
| CN1CCC(NC(=O)c2n[nH]c3ccc(-c4cc(CN5CCCCC5)cc(F)c4F)cc23)CC1 [Compound 272, 5-(2,3-Difluoro-5-(piperidin-1-ylmethyl)phenyl)-N-(1-methylpiperidin-4-yl)-1H-indazole-3-carboxamide] | 7.82 | 5.77 |
| CC(C)(C)N1CCC(NC(=O)c2n[nH]c3ccc(-c4cccnc4)cc23)CC1 [Compound 291, N-(1-(tert-Butyl)piperidin-4-yl)-5-(pyridin-3-yl)-1H-indazole-3-carboxamide] | 7.68 | 6.00 |
| CC(C)(C)CN1CCC(NC(=O)c2n[nH]c3ccc(-c4cccnc4)cc23)CC1 [Compound 329, N-(1-Neopentylpiperidin-4-yl)-5-(pyridin-3-yl)-1H-indazole-3-carboxamide] | 8.15 | 5.33 |
| O=C(NC1CCN(CCF)CC1)c1n[nH]c2ccc(-c3cccc(F)c3F)cc12 [Compound 1160, 5-(2,3-Difluorophenyl)-N-(1-(2-fluoroethyl)piperidin-4-yl)-1H-indazole-3-carboxamide] | 7.40 | 5.96 |
| O=C(NC1CCN(C2COC2)CC1)c1n[nH]c2ccc(-c3cccc(F)c3F)cc12 [Compound 1164, 5-(2,3-Difluorophenyl)-N-(1-(oxetan-3-yl)piperidin-4-yl)-1H-indazole-3-carboxamide] | 7.31 | 5.85 |
| O=C(NCCN1CCCC1)c1n[nH]c2ccc(-c3cccc(F)c3F)cc12 [Compound 1166, 5-(2,3-Difluorophenyl)-N-(2-(pyrrolidin-1-yl)ethyl)-1H-indazole-3-carboxamide] | 7.10 | 5.62 |

| SMILES | pEC50 (DYRK1A) | pIC50 [1] |
| --- | --- | --- |
| CN(C)CCNC(=O)c1n[nH]c2ccc(-c3cccnc3)cc12 [Compound 1259, N-(2-(Dimethylamino)ethyl)-5-(pyridin-3-yl)-1H-indazole-3-carboxamide] | 7.70 | 5.74 |
| CC(C)OCCCNC(=O)c1n[nH]c2ccc(-c3cccnc3)cc12 [Compound 1261, N-(3-Isopropoxypropyl)-5-(pyridin-3-yl)-1H-indazole-3-carboxamide] | 8.30 | 6.00 |
| Cc1ccc(-c2ccc3[nH]nc(C(=O)NCCCOC(C)C)c3c2)cn1 [Compound 1262, N-(3-Isopropoxypropyl)-5-(6-methylpyridin-3-yl)-1H-indazole-3-carboxamide] | 7.22 | 5.74 |
| CC(C)OCCCNC(=O)c1n[nH]c2ccc(-c3cccc(F)c3F)cc12 [Compound 1264, 5-(2,3-Difluorophenyl)-N-(3-isopropoxypropyl)-1H-indazole-3-carboxamide] | 6.58 | 5.68 |
| O=C(NCCN1CCCCC1)c1n[nH]c2ccc(-c3cccnc3)cc12 [Compound 1265, N-(2-(Piperidin-1-yl)ethyl)-5-(pyridin-3-yl)-1H-indazole-3-carboxamide] | 7.77 | 5.92 |
| O=C(NCCN1CCOCC1)c1n[nH]c2ccc(-c3cccnc3)cc12 [Compound 1267, N-(2-Morpholinoethyl)-5-(pyridin-3-yl)-1H-indazole-3-carboxamide] | 8.30 | 5.82 |
| CN1CC(NC(=O)c2n[nH]c3ccc(-c4cccc(F)c4F)cc23)C1 [Compound 1272, 5-(2,3-Difluorophenyl)-N-(1-methylazetidin-3-yl)-1H-indazole-3-carboxamide] | 7.25 | 5.66 |
| CC(C)CN1CC(NC(=O)c2n[nH]c3ccc(-c4cncc(Cl)c4)cc23)C1 [Compound 1273, 5-(5-Chloropyridin-3-yl)-N-(1-isobutylazetidin-3-yl)-1H-indazole-3-carboxamide] | 7.64 | 5.48 |
| CC(C)CN1CC(NC(=O)c2n[nH]c3ccc(-c4cncc(C(F)F)c4)cc23)C1 [Compound 1274, 5-(5-(Difluoromethyl)pyridin-3-yl)-N-(1-isobutylazetidin-3-yl)-1H-indazole-3-carboxamide] | 7.70 | 5.92 |
| CC(C)CN1CC(NC(=O)c2n[nH]c3ccc(-c4cncc(F)c4)cc23)C1 [Compound 1275, 5-(5-Fluoropyridin-3-yl)-N-(1-isobutylazetidin-3-yl)-1H-indazole-3-carboxamide] | 7.55 | 5.57 |
| CN1CCC2(CC1)CC(NC(=O)c1n[nH]c3ccc(-c4cncc(Cl)c4)cc13)C2 [Compound 1276, 5-(5-Chloropyridin-3-yl)-N-(7-methyl-7-azaspiro[3.5]nonan-2-yl)-1H-indazole-3-carboxamide] | 8.15 | 5.28 |
| CN1CCC2(CC1)CC(NC(=O)c1n[nH]c3ccc(-c4cccc(F)c4F)cc13)C2 [Compound 1278, 5-(2,3-Difluorophenyl)-N-(7-methyl-7-azaspiro[3.5]nonan-2-yl)-1H-indazole-3-carboxamide] | 7.85 | 5.26 |
| O=C(NC1CCC(F)(F)CC1)c1n[nH]c2ccc(-c3cccnc3)cc12 [Compound 1283, N-(4,4-Difluorocyclohexyl)-5-(pyridin-3-yl)-1H-indazole-3-carboxamide] | 8.70 | 5.89 |
| N[C@H]1CC[C@@H](NC(=O)c2n[nH]c3ccc(-c4cccnc4)cc23)CC1 [Compound 1285, N-((1s,4s)-4-Aminocyclohexyl)-5-(pyridin-3-yl)-1H-indazole-3-carboxamide] | 7.46 | < 5.00 |
| N[C@H]1CC[C@H](NC(=O)c2n[nH]c3ccc(-c4cccnc4)cc23)CC1 [Compound 1286, N-((1r,4r)-4-Aminocyclohexyl)-5-(pyridin-3-yl)-1H-indazole-3-carboxamide] | 8.70 | 5.43 |
| CN(C)[C@H]1CC[C@@H](NC(=O)c2n[nH]c3ccc(-c4cccnc4)cc23)CC1 [Compound 1287, N-((1s,4s)-4-(Dimethylamino)cyclohexyl)-5-(pyridin-3-yl)-1H-indazole-3-carboxamide] | 7.43 | < 5.00 |
| CN(C)[C@H]1CC[C@H](NC(=O)c2n[nH]c3ccc(-c4cccnc4)cc23)CC1 [Compound 1288, N-((1r,4r)-4-(Dimethylamino)cyclohexyl)-5-(pyridin-3-yl)-1H-indazole-3-carboxamide] | 9.00 | 5.86 |
